Reference: US9497972B2, “Compositions comprising a biological control agent and an insecticide” (priority 2012, dated 2016)

Legend:
Format in all cases: in vivo
Phaedon cochleariae = Phaedon cochleariae spray test, Example C: Chinese cabbage leaf-disks
Procedure: (§1) For all examples efficiencies of the compositions comprising at least one BCA and at least one specific insecticide has been determined by the “Colby-formula”: The expected efficacy of a given combination of two compounds is calculated as follows (see Colby, S. R., “Calculating Synergistic and antagonistic Responses of Herbicide Combinations”, Weeds 15, pp. 20-22, 1967):
(§2) If • X is the efficacy expressed in % mortality of the untreated control for test compound A at a concentration of m ppm respectively m g/ha, • Y is the efficacy expressed in % mortality of the untreated control for test compound B at a concentration of n ppm respectively n g/ha, • E is the efficacy expressed in % mortality of the untreated control using the mixture of A and B at m and n ppm respectively m and n g/ha, then is E=X+Y−(X×Y/100)
(§3) If the observed insecticidal efficacy of the combination is higher than the one calculated as “E”, then the combination of the two compounds is more than additive, i.e., there is a synergistic effect.
Phaedon cochleariae—Spray Test
(§4) To produce a suitable preparation of active compound, 1 part by weight of active compound is mixed with the stated amount of solvent and emulsifier, and the concentrate is diluted with emulsifier-containing water to the desired concentration. To produce a suitable preparation of a spore suspension the spores are diluted with emulsifier-containing water to the desired concentration.
Chinese cabbage (Brassica pekinensis) leaf-disks are sprayed with a preparation of the active ingredient of the desired concentration. Once dry, the leaf disks are infested with mustard beetle larvae (Phaedon cochleariae).
After the specified period of time, mortality in % is determined. 100% means all beetle larvae have been killed and 0% means none of the beetle larvae have been killed. The mortality values determined thus are recalculated using the Colby-formula (see above).

Spodoptera frugiperda = Spodoptera frugiperda spray test, Example D: maize leaf sections
Procedure: as §1, §2, §3
Spodoptera frugiperda—Spray Test
as §4, with “preparation of the active compound,” for “preparation of active compound,”
Maize (Zea mais) leaf sections are sprayed with a preparation of the active ingredient of the desired concentration. Once dry, the leaf sections are infested with fall armyworm larvae (Spodoptera frugiperda).
After the specified period of time, mortality in % is determined. 100% means all caterpillars have been killed and 0% means none of the caterpillars have been killed. The mortality values determined thus are recalculated using the Colby-formula (see above).

Myzus persicae [1] = assay: Myzus persicae spray test (MYZUPE), Example A: Chinese cabbage leaf-disks
Procedure: as §1, §2, §3
Myzus persicae—Spray Test (MYZUPE)
as §4
Chinese cabbage (Brassica pekinensis) leaf-disks infected with all instars of the green peach aphid (Myzus persicae), are sprayed with a preparation of the active ingredient of the desired concentration.
After the specified period of time, mortality in % is determined. 100% means all aphids have been killed; 0% means none of the aphids have been killed. The mortality values determined thus are recalculated using the Colby-formula (see above).

Tetranychus urticae = Tetranychus urticae spray test, OP-resistant, Example B: French beans
Procedure: as §1, §2, §3
Tetranychus urticae—Spray Test, OP-Resistant […]
(§5) After the specified period of time, mortality in % is determined. […] The mortality values determined thus are recalculated using the Colby-formula (see above).

Myzus persicae [2] = assay: Myzus persicae spray test, Example E: cabbage leaves (Brassica oleracea); conditions: 1 ppm
Procedure: as §1, §2, §3
Myzus persicae—Spray Test […]
as §5

Spinetoram [Spinetoram (I150)]
Efficacy in % after 6^d (Phaedon cochleariae; 0.16 g ai/ha): 0% | Efficacy in % after 6^d (Phaedon cochleariae; 0.8 g ai/ha): 33% | Efficacy in % after 2^d (Spodoptera frugiperda; 0.16 g ai/ha): 67%

CN1COCN(Cc2cnc(Cl)s2)/C1=N\[N+](=O)[O-] [Thiamethoxam (I147), Thiamethoxam]
Efficacy in % after 6^d (Myzus persicae [1]; 0.16 g/ha): 0% | Efficacy in % after 1^d (Myzus persicae [1]; 0.4 g/ha): 0% | Efficacy in % after 1^d (Myzus persicae [1]; 2 g/ha): 0%

Spinosad [Spinosad (I151)]
Efficacy in % after 6^d (Myzus persicae [1]; 20 g/ha): 0% | Efficacy in % after 6^d (Tetranychus urticae; 4 g ai/ha): 0% | Efficacy in % after 2^d (Tetranychus urticae; 20 g ai/ha): 50% | Efficacy in % after 6^d (Phaedon cochleariae; 4 g ai/ha): 0% | Efficacy in % after 6^d (Spodoptera frugiperda; 0.16 g ai/ha): 0% | Efficacy in % after 2^d (Spodoptera frugiperda; 0.8 g ai/ha): 0%

CC(c1ccc(C(F)(F)F)nc1)S(C)(=O)=NC#N (centres unmarked) [Sulfoxaflor (I149), Sulfoxaflor]
Efficacy in % after 6^d (Myzus persicae [1]; 0.08 g/ha): 70% | Efficacy in % after 6^d (Myzus persicae [1]; 0.4 g/ha): 70%

CN/C(=N\[N+](=O)[O-])NCc1cnc(Cl)s1 [Clothianidin (I142), Clothianidin]
Efficacy in % after 1^d (Myzus persicae [1]; 0.8 g/ha): 70% | Efficacy in % after 6^d (Myzus persicae [1]; 4 g/ha): 70% | Efficacy in % after 2^d (Phaedon cochleariae; 20 g ai/ha): 0%

O=[N+]([O-])NC1=NCCN1Cc1ccc(Cl)nc1 [Imidacloprid (I144), Imidacloprid]
Efficacy in % after 6^d (Myzus persicae [1]; 0.032 g/ha): 0% | Efficacy in % after 1^d (Myzus persicae [1]; 0.16 g/ha): 0% | Efficacy in % after 1^d (Myzus persicae [1]; 0.4 g/ha): 70%

N#C/N=C1\SCCN1Cc1ccc(Cl)nc1 [Thiacloprid (I146), Thiacloprid]
Efficacy in % after 6^d (Myzus persicae [1]; 0.16 g/ha): 0% | Efficacy in % after 6^d (Myzus persicae [1]; 0.8 g/ha): 70% | Efficacy in % after 1^d (Myzus persicae [2]): 35%
